33 compounds from ChEMBL document CHEMBL5143717 (J Med Chem, 2022) can be followed below.

The nature of data set [1]: AUClast in rat at 2 mg/kg, po. Format: ADME, organism-based. The note with it: in vivo. Details: time 0 - last, dose 2 mg/kg, route po.
A short description of data set [2]: Drug concentration in rat at 2 mg/kg, po measured after 24 hrs. Format: ADME, organism-based. The note with it: in vivo; for concentration at 24 h: read-out: Drug uptake; for Drug uptake: po, 2 mg/kg, 24 h, BLD = below limit of detection.
Data set [3] in a line: Volume of distribution at steady state in rat at 2 mg/kg, po or 0.5 mg/kg, iv. Format: ADME, organism-based. The note with it: in vivo.
Data set [4] in a line: Volume of distribution at steady state in dog at 1 mg/kg, po or 0.5 mg/kg, iv. Format: ADME, organism-based, Canis lupus familiaris. The note with it: in vivo.
Data set [5] in a line: Volume of distribution at steady state in cynomolgus monkey at 1 mg/kg, po or 0.5 mg/kg, iv. Format: ADME, organism-based, Macaca fascicularis. The note with it: in vivo.
Data set [6] is described as follows: Oral bioavailability in rat at 2 mg/kg. The note with it: in vivo. Format: ADME, organism-based.
The nature of data set [7]: Oral bioavailability in dog at 1 mg/kg. Format: ADME, organism-based, Canis lupus familiaris. The note with it: in vivo.
Data set [8] is described as follows: Oral bioavailability in cynomolgus monkey at 1 mg/kg. Format: ADME, organism-based, Macaca fascicularis. The note with it: in vivo.

For orientation: AUC(0-t) means the area under the concentration-time curve up to a stated or last time point. Broadly, the bioavailability is dose-corrected exposure relative to a reference, in per cent.

In data set [1], `COc1cc(OCc2coc(N3CCOCC3)n2)c2cc(-c3cn4nc(OC)sc4n3)oc2c1` displayed an area under the curve AUC(0-t) of 13.1 µM·h. Further, the concentration at 24 h in data set [2] stood at 69 nM.

In data set [1], `COc1cc(OCc2csc(-c3ccc(S(C)(=O)=O)cc3)n2)c2cc(-c3cn4nc(OC)sc4n3)oc2c1` displayed an AUC(0-t) of 0.26 µM·h. Also, the concentration at 24 h in data set [2] was determined as 2 nM.

In data set [1], `COc1cc(OCc2csc(N3CC4CCC(C3)O4)n2)c2cc(-c3cn4nc(OC)sc4n3)oc2c1` registered an AUC(0-t) of 1.9 µM·h. In addition, the concentration at 24 h in data set [2] came to 12 nM.

Take `COc1cc(OCc2cccc(-c3ccc(C#N)cn3)c2)c2cc(-c3cn4nc(OC)sc4n3)oc2c1`: the AUC(0-t) in data set [1] was 0.91 µM·h. For the same compound, in data set [2], the concentration at 24 h worked out at 13 nM.

Regarding `CNC(=O)c1ccc(-c2nc(COc3cc(OC)cc4oc(-c5cn6nc(OC)sc6n5)cc34)cs2)cc1`, the AUC(0-t) in data set [1] was 0.04 µM·h. Further, the Drug uptake result in data set [2] was “Bld”.

For `COc1cc(OCc2csc(-c3ccccc3)n2)c2cc(-c3cn4nc(OC)sc4n3)oc2c1`, the exposure AUC(0-t) in data set [1] is 8 µM·h. Besides, the concentration at 24 h in data set [2] turned out to be 89 nM.

In data set [1], `COc1cc(OCc2csc(-c3ccc(C(=O)N4CCC(F)(F)C4)cc3)n2)c2cc(-c3cn4nc(OC)sc4n3)oc2c1` yielded an AUC(0-t) of 0.58 µM·h. In data set [2], the concentration at 24 h was 1.8 nM.

`COc1cc(OCc2csc(N3CCCOCC3)n2)c2cc(-c3cn4nc(OC)sc4n3)oc2c1` showed an AUC(0-t) in data set [1] of 5 µM·h. For the same compound, the concentration at 24 h in data set [2] was 49 nM.

As to `COc1cc(OCc2cccc(-c3ccc(C(F)(F)F)cn3)c2)c2cc(-c3cn4nc(OC)sc4n3)oc2c1`, the exposure AUC(0-t) in data set [1] was 0.83 µM·h. The Drug uptake result in data set [2] is recorded as “Bld”.

The compound `COc1cc(OCc2nc(N3CCOCC3)sc2C)c2cc(-c3cn4nc(OC)sc4n3)oc2c1` registered an AUClast in data set [1] of 23.7 µM·h. Besides, the concentration at 24 h in data set [2] stood at 230 nM. Also, the Vdss is 1.4 L/kg in data set [3], 5.9 L/kg in data set [4] and 11 L/kg in data set [5]. This compound also had a F in data set [6] of 21%. In addition, the bioavailability in data set [7] was 19%; in data set [8] it was 26%.

With `COc1cc(OCc2cccc(-c3ccc(C#N)cc3)c2)c2cc(-c3cn4nc(OC)sc4n3)oc2c1`, the AUC(0-t) in data set [1] was 1.2 µM·h. Also, the concentration at 24 h in data set [2] turned out to be 13 nM.

In turn, `COc1cc(OCc2cccc(-c3ccoc3)c2)c2cc(-c3cn4nc(OC)sc4n3)oc2c1` yielded an AUC(0-t) in data set [1] of 10.9 µM·h. The concentration at 24 h in data set [2] stood at 140 nM.

The compound `COc1cc(OCc2csc(-c3ccc(C(C)(C)O)cc3)n2)c2cc(-c3cn4nc(OC)sc4n3)oc2c1` had an AUC(0-t) in data set [1] of 0.92 µM·h. In data set [2], the concentration at 24 h is 6.7 nM.

In the case of `COc1cc(OCc2csc(-c3ccc(C(N)=O)cc3)n2)c2cc(-c3cn4nc(OC)sc4n3)oc2c1`, the Drug uptake result in data set [2] is listed as “Bld”.

Compound `COc1cc(OCc2cccc(-c3cnc(OC)cn3)c2)c2cc(-c3cn4nc(OC)sc4n3)oc2c1` yielded an AUC(0-t) in data set [1] of 1.4 µM·h. Besides, the concentration at 24 h in data set [2] was 7.7 nM.

`COc1cc(OCc2csc(N3CCN(C)CC3)n2)c2cc(-c3cn4nc(OC)sc4n3)oc2c1` had an area under the curve AUC(0-t) in data set [1] of 1.8 µM·h. Moreover, the concentration at 24 h in data set [2] was found to be 5 nM.

Regarding `COc1cc(OCc2cccc(-c3cnc(OC)nc3)c2)c2cc(-c3cn4nc(OC)sc4n3)oc2c1`, in data set [1], the AUC(0-t) was determined as 2 µM·h. The concentration at 24 h in data set [2] was 29 nM.

In data set [1], `COc1cc(OCc2nc(N3CCOCC3)sc2C(F)(F)F)c2cc(-c3cn4nc(OC)sc4n3)oc2c1` returned an area under the curve AUC(0-t) of 2.4 µM·h. The concentration at 24 h in data set [2] was 14 nM.

In turn, `COc1cc(OCc2csc(N3CCCCC3)n2)c2cc(-c3cn4nc(OC)sc4n3)oc2c1` came in with an area under the curve AUC(0-t) in data set [1] of 21.6 µM·h. Also, in data set [2], the concentration at 24 h was found to be 340 nM.

In data set [1], `COc1cc(OCc2csc(-c3ccc(C(F)(F)F)cc3)n2)c2cc(-c3cn4nc(OC)sc4n3)oc2c1` yielded an exposure AUC(0-t) of 1.3 µM·h. Further, the concentration at 24 h in data set [2] worked out at 9 nM.

In data set [1], `COc1cc(OCc2csc(-c3ccc(C(=O)N4CCCC4)cc3)n2)c2cc(-c3cn4nc(OC)sc4n3)oc2c1` registered an AUC(0-t) of 3 µM·h. In addition, the concentration at 24 h in data set [2] was 4.7 nM.

Regarding `COc1ccc(-c2cccc(COc3cc(OC)cc4oc(-c5cn6nc(OC)sc6n5)cc34)c2)nc1`, the AUC(0-t) in data set [1] turned out to be 3.3 µM·h. In addition, in data set [2], the concentration at 24 h came to 22 nM.

With `COc1cc(OCc2csc(C3CCC(F)(F)CC3)n2)c2cc(-c3cn4nc(OC)sc4n3)oc2c1`, the AUC(0-t) in data set [1] came to 0.8 µM·h. The concentration at 24 h in data set [2] is 21 nM.

Regarding `COc1cc(OCc2csc(C3CCOCC3)n2)c2cc(-c3cn4nc(OC)sc4n3)oc2c1`, in data set [1], the AUC(0-t) is 3.7 µM·h. Besides, the concentration at 24 h in data set [2] was determined as 28 nM.

As for `COc1cc(OCc2cccc(-c3ccc(OC)nc3)c2)c2cc(-c3cn4nc(OC)sc4n3)oc2c1`, the area under the curve AUC(0-t) in data set [1] was found to be 3.5 µM·h. Besides, the concentration at 24 h in data set [2] stood at 19 nM.

`COc1cc(OCc2csc(N3CCOCC3)n2)c2cc(-c3cn4nc(OC)sc4n3)oc2c1` yielded an AUC(0-t) in data set [1] of 16.2 µM·h. Moreover, the concentration at 24 h in data set [2] came out at 240 nM.

In data set [1], `COc1cc(OCc2ccnc(-c3ccccc3)n2)c2cc(-c3cn4nc(OC)sc4n3)oc2c1` gave an exposure AUC(0-t) of 7.4 µM·h. Further, the concentration at 24 h in data set [2] amounted to 94 nM.

`COc1cc(OCc2cccc(OCc3ccccc3)c2)c2cc(-c3cn4nc(OC)sc4n3)oc2c1`: the AUC(0-t) in data set [1] was determined as 0.66 µM·h. The concentration at 24 h in data set [2] was found to be 3 nM.

Turning to `COc1cc(OCc2ccccc2)c2cc(-c3cn4nc(OC)sc4n3)oc2c1`, the exposure AUC(0-t) in data set [1] is 5.5 µM·h. Besides, the concentration at 24 h in data set [2] was determined as 46 nM.

In data set [1], `COc1cc(OCc2cccc(N3CCOCC3)n2)c2cc(-c3cn4nc(OC)sc4n3)oc2c1` came in with an area under the curve AUC(0-t) of 7.3 µM·h. In data set [2], the concentration at 24 h amounted to 93 nM.

As to `COc1cc(OCc2ccnc(N3CCOCC3)n2)c2cc(-c3cn4nc(OC)sc4n3)oc2c1`, the exposure AUC(0-t) in data set [1] came out at 7.5 µM·h. Moreover, the concentration at 24 h in data set [2] amounted to 86 nM.

Turning to `COc1cc(OCc2cc(C(F)(F)F)ccc2C)c2cc(-c3cn4nc(OC)sc4n3)oc2c1`, the area under the curve AUC(0-t) in data set [1] was found to be 1.9 µM·h. The concentration at 24 h in data set [2] was found to be 12 nM.

In data set [1], `COc1cc(OCc2csc(-c3ccc(C(=O)N(C)C)cc3)n2)c2cc(-c3cn4nc(OC)sc4n3)oc2c1` [BMS-986141] displayed an AUClast of 3.1 µM·h. Also, the concentration at 24 h in data set [2] is 4.7 nM. Moreover, the Vdss was found to be 2.7 L/kg in data set [3], 2.7 L/kg in data set [4] and 14 L/kg in data set [5]. In data set [6], this compound registered an F of 31%. Besides, the bioavailability in data set [7] was 25%; in data set [8], 36%.
